# In patent US20060018872A1, “Poly(lactic acid) copolymer hydrogels and related methods of drug delivery” (priority 2004, published 2006):
# Structures can show the parent of a compound that is named as a salt.
# Legend:
# physchem = experiment: physchem
# Excerpt: The use of thermo-reversible triblock gels (Pluronics) as delivery agents for anti-inflammatories (naproxen and indomethacin), local anesthetics, and anti-cancer agents has been studied (Sharma, P. K. and Bhatia, S. R. Effect of Anti-Inflammatories on Pluronic® F127: Micellar Assembly, Gelation and Partitioning. Int J Pharmaceutics, in press, 2004). An ultraviolet spectroscopy technique has been developed to measure rapidly the solubility and micelle-water partition coefficients of hydrophobic pharmaceuticals in micellar gels and has been applied to PLA-PEO-PLA hydrogels. In addition to evaluating partitioning, release kinetics in PLA-PEO-PLA systems have also been studied.
# [1] = Release kinetics of pharmaceuticals from PLA-PEO-PLA gels at 25° C.; type: physicochemical; conditions: both polymers (1L and 2D/L), FIG. 7A
# [2] = cited from earlier work
smiles,measurement,setting,value
"COc1ccc2c(c1)c(CC(=O)O)c(C)n2C(=O)c1ccc(Cl)cc1 [Indomethacin, indomethacin]",micelle-water partition coefficient,physchem,108±8
same,solubility,physchem; water,25 µg/mL
COC(=O)c1ccc(O)cc1 [methyl paraben],release of methyl paraben from PLA-PEO-PLA gels,[1],majority of the methyl paraben being quickly released within the first five hours
CC1=C(CC(=O)O)c2cc(F)ccc2/C1=C\c1ccc([S+](C)[O-])cc1 (centres unmarked) [sulindac],time of complete release,[2]; from poly(styrene-divinylbenzene) microspheres,24 h
CCCCNc1ccc(C(=O)OCCN(C)C)cc1 [tetracaine hydrochloride],release behavior,[2]; from poly(DL-lactic-co-glycolic acid),burst release
